These results are taken from patent publication US20260297080A1, “BICYCLIC COMPOUNDS AS CDK INHIBITORS” (BeOne Medicines I GmbH, priority 2022, published 2026).

SMILES strings stand for the structures.

For one experiment, the target named is CDK1/Cyclin B1 (Homo sapiens, UniProt P06493). The experiment can be described thus: CDK1/Cyclin B1 Biochemical Assay (TR-FRET), 0.015 mM ATP. As to conditions: 0.15 μM Rb (Ser780)-biotin substrate, pH7.0, 60 min preincubation, 120 min reaction, room temperature. In a few lines:
(§1)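 Percent inhibition was derived from the 665 nm/620 nm TR-FRET ratio after a 120-minute room-temperature reaction on 0.15 μM Rb (Ser780)-biotin, preceded by 60-minute enzyme–compound preincubation. IC50 came from four-parameter logistic fitting.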
For orientation: Time-resolved FRET reads energy transfer from a long-lived donor to a nearby acceptor.

A further experiment has as its target CDK2/Cyclin E1 (Homo sapiens, UniProt P24941). The experiment can be described thus: CDK2/Cyclin E1 Biochemical Assay (TR-FRET), 0.060 mM ATP. As to conditions: 0.15 μM Rb (Ser780)-biotin substrate, pH7.0, 60 min preincubation, 120 min reaction, room temperature. In a few lines: as §1

CDK1/Cyclin B1, sequence (P06493 whole entry): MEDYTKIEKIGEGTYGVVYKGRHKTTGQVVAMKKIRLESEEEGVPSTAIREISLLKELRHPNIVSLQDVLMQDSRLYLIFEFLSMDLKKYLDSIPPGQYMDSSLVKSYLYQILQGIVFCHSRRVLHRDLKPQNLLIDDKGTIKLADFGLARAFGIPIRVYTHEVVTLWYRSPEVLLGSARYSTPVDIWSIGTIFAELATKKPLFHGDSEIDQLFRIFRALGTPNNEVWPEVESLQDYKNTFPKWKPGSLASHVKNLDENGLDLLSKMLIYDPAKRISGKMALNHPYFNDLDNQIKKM
CDK1/Cyclin B1, sequence (P14635 whole entry partner): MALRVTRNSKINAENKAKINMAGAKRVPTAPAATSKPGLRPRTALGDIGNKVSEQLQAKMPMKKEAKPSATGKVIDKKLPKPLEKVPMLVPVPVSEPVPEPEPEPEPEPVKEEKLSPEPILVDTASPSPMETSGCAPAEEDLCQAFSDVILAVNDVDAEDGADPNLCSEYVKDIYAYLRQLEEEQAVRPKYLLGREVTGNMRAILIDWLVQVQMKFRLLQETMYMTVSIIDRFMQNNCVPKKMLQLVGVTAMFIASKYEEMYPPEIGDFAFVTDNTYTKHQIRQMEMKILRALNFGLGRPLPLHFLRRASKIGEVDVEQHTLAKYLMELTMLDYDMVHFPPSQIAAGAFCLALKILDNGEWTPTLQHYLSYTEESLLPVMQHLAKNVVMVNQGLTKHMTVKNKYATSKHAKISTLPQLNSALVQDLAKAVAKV

Consider `CC(C)NC(=O)O[C@H]1CC[C@@H](c2cc(Nc3ccc4c(c3CO)CNS4(=O)=O)n[nH]2)C1` (relative stereo) [Example 345, cis-3-(3-((4-(hydroxymethyl)-1,1-dioxido-2,3-dihydrobenzo[d]isothiazol-5-yl)amino)-1H-pyrazol-5-yl)cyclopentyl isopropylcarbamate], for which the IC50 (commonly the concentration that inhibits the measured activity by half) at CDK1/Cyclin B1 is 1.73 µM; on CDK2/Cyclin E1, 0.064 µM.

On to `CC(C)NC(=O)O[C@H]1CC[C@@H](c2cc(Nc3ccc4c(c3)C(F)(F)S(=O)(=O)N4C)n[nH]2)C1` (relative stereo) [Example 346, cis-3-(3-((3,3-difluoro-1-methyl-2,2-dioxido-1,3-dihydrobenzo[c]isothiazol-5-yl)amino)-1H-pyrazol-5-yl)cyclopentyl isopropylcarbamate], for which the IC50 came to 0.482 µM against CDK1/Cyclin B1 and 0.031 µM against CDK2/Cyclin E1.

For `CN1c2ccc(Nc3cc([C@@H]4CC[C@H](OC(=O)N[C@H]5CC[C@@H](O)CC5)C4)[nH]n3)c(F)c2CS1(=O)=O` (relative stereo) [Example 347, cis-3-(3-((4-fluoro-1-methyl-2,2-dioxido-1,3-dihydrobenzo[c]isothiazol-5-yl)amino)-1H-pyrazol-5-yl)cyclopentyl((1s,4s)-4-hydroxycyclohexyl)carbamate], the IC50 came out at 0.411 µM against CDK1/Cyclin B1 and 0.0093 µM at CDK2/Cyclin E1.

Turning to `C[C@@H](CO)NC(=O)O[C@H]1CC[C@@H](c2cc(Nc3ccc4c(c3F)CS(=O)(=O)N4C)n[nH]2)C1` (relative stereo) [Example 348, cis-3-(3-((4-fluoro-1-methyl-2,2-dioxido-1,3-dihydrobenzo[c]isothiazol-5-yl)amino)-1H-pyrazol-5-yl)cyclopentyl((S)-1-hydroxypropan-2-yl)carbamate], the half-inhibitory concentration (IC50) against CDK1/Cyclin B1 turned out to be 0.635 µM; against CDK2/Cyclin E1, 0.022 µM.

Consider `CN1c2ccc(Nc3cc([C@@H]4CC[C@H](OC(=O)NC5(CO)CC5)C4)[nH]n3)c(F)c2CS1(=O)=O` (relative stereo) [Example 350, cis-3-(3-((4-fluoro-1-methyl-2,2-dioxido-1,3-dihydrobenzo[c]isothiazol-5-yl)amino)-1H-pyrazol-5-yl)cyclopentyl(1-(hydroxymethyl)cyclopropyl)carbamate], for which the IC50 at CDK1/Cyclin B1 was 0.321 µM; against CDK2/Cyclin E1, 0.02 µM.

With `C[C@@H](CO)NC(=O)O[C@H]1CC[C@@H](c2cc(Nc3ccc4c(c3F)CN(C)S4(=O)=O)n[nH]2)C1` (relative stereo) [Example 351, cis-3-(3-((4-fluoro-2-methyl-1,1-dioxido-2,3-dihydrobenzo[d]isothiazol-5-yl)amino)-1H-pyrazol-5-yl)cyclopentyl((S)-1-hydroxypropan-2-yl)carbamate], the IC50 at CDK1/Cyclin B1 was 0.658 µM; at CDK2/Cyclin E1, 0.04 µM.

Take `Cc1c(Nc2cc([C@@H]3CC[C@H](OC(=O)NC(C)C)C3)[nH]n2)ccc2c1S(=O)(=O)NC2` (relative stereo) [Example 353, cis-3-(3-((7-methyl-1,1-dioxido-2,3-dihydrobenzo[d]isothiazol-6-yl)amino)-1H-pyrazol-5-yl)cyclopentyl isopropylcarbamate]: the IC50 came to 0.093 µM at CDK1/Cyclin B1 and 0.0024 µM on CDK2/Cyclin E1.

For `C[C@H]1[C@H](O)CN1C(=O)O[C@H]1CC[C@@H](c2cc(Nc3ccc4c(c3)CS(=O)(=O)N4C)n[nH]2)C1` (relative stereo) [Example 354, cis-3-(3-((1-methyl-2,2-dioxido-1,3-dihydrobenzo[c]isothiazol-5-yl)amino)-1H-pyrazol-5-yl)cyclopentyl(2S,3R)-3-hydroxy-2-methylazetidine-1-carboxylate], the values for the IC50 at CDK1/Cyclin B1 and against CDK2/Cyclin E1 were 0.085 µM and 0.011 µM, respectively.

Take `C[C@H]1[C@H](O)CN1C(=O)O[C@H]1CC[C@@H](c2cc(Nc3ccc4c(c3F)CS(=O)(=O)N4C)n[nH]2)C1` (relative stereo) [Example 355, cis-3-(3-((4-fluoro-1-methyl-2,2-dioxido-1,3-dihydrobenzo[c]isothiazol-5-yl)amino)-1H-pyrazol-5-yl)cyclopentyl(2S,3R)-3-hydroxy-2-methylazetidine-1-carboxylate]: the half-maximal inhibitory concentration (IC50) amounted to 0.361 µM against CDK1/Cyclin B1 and 0.019 µM against CDK2/Cyclin E1.

Turning to `CC(C)NC(=O)O[C@H]1CC[C@@H](c2cc(Nc3ccc4c(c3F)C(F)(F)S(=O)(=O)N4)n[nH]2)C1` (relative stereo) [Example 356, cis-3-(3-((3,3,4-trifluoro-2,2-dioxido-1,3-dihydrobenzo[c]isothiazol-5-yl)amino)-1H-pyrazol-5-yl)cyclopentyl isopropylcarbamate], the IC50 against CDK1/Cyclin B1 was found to be 1.58 µM; on CDK2/Cyclin E1, 0.164 µM.

As to `CC(NC(=O)O[C@H]1CC[C@@H](c2cc(Nc3ccc4c(c3F)CN(C3CC3)S4(=O)=O)n[nH]2)C1)C1COC1` (relative stereo) [Example 357, cis-3-(3-((2-cyclopropyl-4-fluoro-1,1-dioxido-2,3-dihydrobenzo[d]isothiazol-5-yl)amino)-1H-pyrazol-5-yl)cyclopentyl(1-(oxetan-3-yl)ethyl)carbamate], the IC50 on CDK1/Cyclin B1 amounted to 0.817 µM; against CDK2/Cyclin E1, 0.023 µM.

For `CC1(NC(=O)O[C@H]2CC[C@@H](c3cc(Nc4ccc5c(c4F)CN(C4CC4)S5(=O)=O)n[nH]3)C2)CCOC1` (relative stereo) [Example 358, cis-3-(3-((2-cyclopropyl-4-fluoro-1,1-dioxido-2,3-dihydrobenzo[d]isothiazol-5-yl)amino)-1H-pyrazol-5-yl)cyclopentyl(3-methyltetrahydrofuran-3-yl)carbamate], the IC50 is 0.221 µM on CDK1/Cyclin B1 and 0.0026 µM at CDK2/Cyclin E1.

`O=C(NC1(CO)CC1)O[C@H]1CC[C@@H](c2cc(Nc3ccc4c(c3F)CN(C3CC3)S4(=O)=O)n[nH]2)C1` (relative stereo) [Example 360, cis-3-(3-((2-cyclopropyl-4-fluoro-1,1-dioxido-2,3-dihydrobenzo[d]isothiazol-5-yl)amino)-1H-pyrazol-5-yl)cyclopentyl(1-(hydroxymethyl)cyclopropyl)carbamate]: the IC50 at CDK1/Cyclin B1 was 0.358 µM; at CDK2/Cyclin E1, 0.012 µM.

With `COCC(C)NC(=O)O[C@H]1CC[C@@H](c2cc(Nc3ccc4c(c3F)CN(C3CC3)S4(=O)=O)n[nH]2)C1` (relative stereo) [Example 361, cis-3-(3-((2-cyclopropyl-4-fluoro-1,1-dioxido-2,3-dihydrobenzo[d]isothiazol-5-yl)amino)-1H-pyrazol-5-yl)cyclopentyl(1-methoxypropan-2-yl)carbamate], the IC50 worked out at 0.349 µM against CDK1/Cyclin B1 and 0.0084 µM against CDK2/Cyclin E1.

For the molecule `CC1(NC(=O)O[C@H]2CC[C@@H](c3cc(Nc4ccc5c(c4F)CS(=O)(=O)N5C4CC4)n[nH]3)C2)COC1` (relative stereo) [Example 362, cis-3-(3-((1-cyclopropyl-4-fluoro-2,2-dioxido-1,3-dihydrobenzo[c]isothiazol-5-yl)amino)-1H-pyrazol-5-yl)cyclopentyl(3-methyloxetan-3-yl)carbamate], the figures for the half-inhibitory concentration (IC50) against CDK1/Cyclin B1 and against CDK2/Cyclin E1 were 0.133 µM and 0.0038 µM, respectively.

With `COCC(C)(C)NC(=O)O[C@H]1CC[C@@H](c2cc(Nc3ccc4c(c3F)CNS4(=O)=O)n[nH]2)C1` (relative stereo) [Example 364, cis-3-(3-((4-fluoro-1,1-dioxido-2,3-dihydrobenzo[d]isothiazol-5-yl)amino)-1H-pyrazol-5-yl)cyclopentyl(1-methoxy-2-methylpropan-2-yl)carbamate], the figures for the IC50 against CDK1/Cyclin B1 and against CDK2/Cyclin E1 were 0.102 µM and 0.0016 µM, respectively.
